Measured values as given in PubChem BioAssay (NCI).
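Method: 48-hour compound exposure of cells in 96-well plates, five concentrations, linear interpolation of endpoints. At the GI50, growth is halved. Definition used: TGI = concentration required for complete inhibition of growth.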

Key:
Assay in all cases: inhibition of tumour cell growth, NCI panel, 48 h
[1] = tested on: HCT-15 colon
[2] = tested on: HT29 colon
[3] = tested on: SNB-75 CNS
[4] = tested on: RXF 393 renal
[5] = tested on: SK-OV-3 ovarian
[6] = tested on: LOX IMVI melanoma
[7] = tested on: OVCAR-5 ovarian
[8] = tested on: HOP-62 NSCLC
[9] = tested on: UO-31 renal
[10] = tested on: M14 melanoma
[11] = tested on: 786-0 renal
[12] = tested on: SF-268 CNS
[13] = tested on: SF-295 CNS
[14] = tested on: HCC-2998 colon
[15] = tested on: UACC-257 melanoma
[16] = tested on: BT-549 breast
[17] = tested on: SN12C renal
[18] = tested on: PC-3 prostate
[19] = tested on: MOLT-4 leukemia
[20] = tested on: MDA-MB-231 breast
[21] = tested on: UACC-62 melanoma
[22] = tested on: OVCAR-3 ovarian
[23] = tested on: NCI-H23 lung
[24] = tested on: HS 578T breast
[25] = tested on: K-562 leukemia
[26] = tested on: COLO 205 colon
[27] = tested on: SR leukemia
[28] = tested on: SK-MEL-28 melanoma
[29] = tested on: T-47D breast

COc1ccc(Cn2c(Br)c3c(c2-c2cc(OC)c(OC)c(OC)c2)CCc2sc(N)nc2-3)cc1
TGI [1]: > 48.7 µM
GI50 [2]: 0.731 µM
TGI [2]: 5.48 µM
GI50 [3]: 0.688 µM
TGI [3]: 31.8 µM
GI50 [4]: 0.448 µM
TGI [4]: 14.8 µM
GI50 [5]: 1.2 µM
TGI [5]: 8.04 µM
GI50 [6]: 0.869 µM
TGI [6]: 6.14 µM
GI50 [7]: 4.26 µM
TGI [7]: > 100 µM
GI50 [8]: 1.33 µM
TGI [8]: > 47 µM
GI50 [9]: 1.5 µM
TGI [9]: 17.9 µM
GI50 [10]: 1.36 µM
TGI [10]: > 44.9 µM
GI50 [11]: 2.17 µM
TGI [11]: > 49.8 µM
GI50 [12]: 1.73 µM
TGI [12]: 20.8 µM
GI50 [13]: 0.556 µM
TGI [13]: 7.57 µM
GI50 [14]: 2.93 µM
TGI [14]: 12.3 µM
GI50 [15]: 11.8 µM
TGI [15]: 51.3 µM
GI50 [16]: 2.39 µM
TGI [16]: 9.09 µM
GI50 [17]: 2.15 µM
TGI [17]: 14.2 µM
GI50 [18]: 1.57 µM
TGI [18]: > 100 µM
GI50 [19]: 1.51 µM
TGI [19]: > 29.7 µM
GI50 [20]: 1.92 µM
TGI [20]: 7.1 µM
GI50 [21]: 0.598 µM
TGI [21]: 15 µM
GI50 [22]: 0.861 µM
TGI [22]: 9.61 µM
GI50 [23]: 2.69 µM
TGI [23]: > 58.3 µM
GI50 [24]: 2.08 µM
TGI [24]: > 100 µM
GI50 [25]: 0.436 µM
TGI [25]: > 32.9 µM
GI50 [26]: 1.07 µM
TGI [26]: 3.7 µM
GI50 [27]: 0.41 µM
TGI [27]: 5.67 µM
GI50 [28]: 4.76 µM
TGI [28]: 33.6 µM
GI50 [29]: 0.626 µM
TGI [29]: 21.5 µM
